Earlier results, collected in patent US10485789B2, “Compositions and methods for targeting receptors expressed in the gut” (Sensor Pharmaceuticals, Inc., priority 2014, dated 2019).

Test system: DSS injury model
Conditions: mice pretreated with antibiotics

O=C(O)c1cccnc1 [niacin]
effect in the DSS injury model: dramatic effect
